These results are taken from ChEMBL document CHEMBL1150543, “Semisynthesis and biological evaluation of brevifoliol 13-[N-benzoyl-(-2R,3S)-3-phenylisoserinate]” (1993).

In assay [1] the test system is B16. Nature of the assay: Effective dose against B16 melanoma cells in microtubule assembly assay. It is filed as functional. The settings on record: Mus musculus, read-out: ED50 (the source's name).
The test system of assay [2] is B16. Kind of assay: Effective dose against B16 melanoma cells in cytotoxicity assay. It is filed as functional. The settings on record: Mus musculus, read-out: ED50 (the source's name).

The structures appear in SMILES notation.

With `CC(=O)O[C@H]1C(=O)[C@@]2(C)[C@H]([C@H](OC(=O)c3ccccc3)[C@]3(O)C[C@H](OC(=O)[C@H](O)[C@@H](NC(=O)c4ccccc4)c4ccccc4)C(C)=C1C3(C)C)[C@]1(OC(C)=O)CO[C@@H]1C[C@@H]2O` [PACLITAXEL], the figures for the EC50 with B16 [1] and in the assay on B16 [2] were 1 µM and 0.027 µM, respectively.
